Results: US6890523B2 (priority 1999, dated 2005)

System: C. difficile
Details: hamster; relapse/recurrence of CDAD
Procedure: Compounds were evaluated for their ability to inhibit the activity of C. difficile toxins the hamster model of C. difficile colitis. Male hamsters (80-100 g) were purchased Biobreeders Inc. (Falmouth, Mass.). All animals were maintained in groups of five in microisolator cages on autoclaved bedding (Beta Chips) and given free access to autoclaved chow and autoclaved, filtered water. Animals were rested approximately 1 week following arrival and prior to initiation of a study. A C. difficile strain initially isolated from a human C. difficile colitis was used to infect the animals. This strain (HUC2-4) produces moderate to high levels of toxins in vitro and in vivo. A suspension of 10^6-10^7 bacterial cells/ml was prepared from an overnight broth culture and 0.1 ml was administered by oral gavage on day −1. Twenty-four hours later, each animal was injected subcutaneously with Cleocin Phosphate IV® at a dose of 10 mg/kg. Polymers were administered to groups of ten animals by gavage three times daily (t.i.d). The dose of polymers was 25-100 mg/day, administered in three divided doses of 0.75 ml each. Initiation and duration of dosing varied according to the treatment regimens as described below. Animals were observed daily for morbidity or mortality. Additional parameters assessed were general appearance, time to onset of clinical signs, and presence or absence of diarrhea (“wet tail”). […]

Compound: Cc1ncc([N+](=O)[O-])n1CCO [metronidazole]
- time to death after discontinuing metronidazole: 3 to 6 days
